The source of these data is patent US12662491B2 (Redona Therapeutics, Inc., priority 2020, dated 2026).

For the assay, the target named is T1, Zcchc11 enzyme (Homo sapiens, UniProt Q5TAX3).
T1 construct: made in house; host or cells: HEK293 cells (Zcchc11); E. coli Rosetta II (LIN28A)
T1 sequence (Q5TAX3 212-1420): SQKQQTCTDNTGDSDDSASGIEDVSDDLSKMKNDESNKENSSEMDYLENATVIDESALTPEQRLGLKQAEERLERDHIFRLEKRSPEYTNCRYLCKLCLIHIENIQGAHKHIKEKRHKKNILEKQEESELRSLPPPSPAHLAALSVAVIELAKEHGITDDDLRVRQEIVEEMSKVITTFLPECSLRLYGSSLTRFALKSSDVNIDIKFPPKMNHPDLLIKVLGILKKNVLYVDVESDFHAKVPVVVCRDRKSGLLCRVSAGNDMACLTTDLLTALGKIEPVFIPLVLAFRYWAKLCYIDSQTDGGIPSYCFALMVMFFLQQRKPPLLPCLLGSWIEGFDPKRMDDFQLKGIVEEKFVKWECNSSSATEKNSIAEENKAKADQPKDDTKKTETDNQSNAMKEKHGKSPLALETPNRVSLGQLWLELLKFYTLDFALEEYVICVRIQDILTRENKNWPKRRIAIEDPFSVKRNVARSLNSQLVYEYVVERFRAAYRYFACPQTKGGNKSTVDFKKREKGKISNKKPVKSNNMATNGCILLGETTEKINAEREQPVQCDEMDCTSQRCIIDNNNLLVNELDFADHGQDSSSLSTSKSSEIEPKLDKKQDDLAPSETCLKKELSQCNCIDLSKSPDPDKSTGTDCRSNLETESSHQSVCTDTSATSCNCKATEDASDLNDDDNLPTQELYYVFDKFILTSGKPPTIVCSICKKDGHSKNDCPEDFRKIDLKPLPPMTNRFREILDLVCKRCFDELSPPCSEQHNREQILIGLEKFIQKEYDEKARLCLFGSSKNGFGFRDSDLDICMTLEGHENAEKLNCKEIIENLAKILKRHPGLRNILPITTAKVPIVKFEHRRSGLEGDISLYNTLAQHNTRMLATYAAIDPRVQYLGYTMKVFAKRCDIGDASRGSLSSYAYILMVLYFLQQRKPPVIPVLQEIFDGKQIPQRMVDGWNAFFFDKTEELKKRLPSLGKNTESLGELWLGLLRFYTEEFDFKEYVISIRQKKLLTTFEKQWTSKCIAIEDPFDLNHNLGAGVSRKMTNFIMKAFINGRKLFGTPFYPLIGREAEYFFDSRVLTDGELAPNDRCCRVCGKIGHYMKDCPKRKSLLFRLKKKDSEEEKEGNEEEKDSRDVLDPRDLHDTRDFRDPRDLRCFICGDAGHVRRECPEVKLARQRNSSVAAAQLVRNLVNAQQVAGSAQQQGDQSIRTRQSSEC
Kind of assay: TUTase assay (Zcchc11 assay, Lin28a-dependent polyuridylation of pre-let-7). The format is biochemical. Particulars: Lin28a-dependent Zcchc11 (Z11) TUTase activity; read-out: Potency Lin28a-dep Z11 IC50. A digest of the protocol:
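Human Zcchc11 residues 212-1420 (HEK293-expressed, MBP tag cleaved, C-terminal FLAG) at 0.2 nM, with 10 nM full-length human LIN28A and 2 nM 5′-fluorescein pre-let-7, preincubated with compound 30 min at room temperature. Reaction started with 5 uM UTP plus 4 nM 3′-rhodamine A20 quench probe; fluorescein loss read kinetically, IC50 from initial rates.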
For `CN(C)C1CN(c2ccc(-n3cc(C(=O)O)c(=O)c4cc(Cl)c(N5CC(c6cn[nH]c6)C[C@@H]5COc5ncccc5Cl)cc43)cn2)C1` (stereo partly drawn) [Compound 304, 6-chloro-7-((2R)-2-(((3-chloropyridin-2-yl)oxy)methyl)-4-(1H-pyrazol-4-yl)pyrrolidin-1-yl)-1-(6-(3-(dimethyl-amino)azetidin-1-yl)pyridin-3-yl)-4-oxo-1,4-dihydro-quinoline-3-carboxylic acid], the IC50 – broadly, the concentration needed to halve the response being measured – is no more than 1000 nM.

Consider `CC1CCN(c2cc3c(cc2Cl)c(=O)c(C(=O)O)cn3-c2ccc(N3CC(N(C)C)C3)nc2)C1COc1ncccc1Cl` (stereo not shown) [Compound 306, 6-chloro-7-(2-(((3-chloropyridin-2-yl)oxy)methyl)-3-methyl-pyrrolidin-1-yl)-1-(6-(3-(dimethyl-amino)azetidin-1-yl)pyridin-3-yl)-4-oxo-1,4-dihydro-quinoline-3-carboxylic acid], for which the IC50 is no more than 1000 nM.

As for `Cc1ccc(Cl)c(OC[C@H]2C[C@H]3C[C@H]3N2c2cc3c(cc2Cl)c(=O)c(C(=O)O)cn3-c2ccc(N(C)C)nc2)n1` [Compound 308, 6-chloro-7-[(1R,3R,5R)-3-{[(3-chloro-6-methylpyridin-2-yl)oxy]methyl}-2-azabicyclo [3.1.0]hexan-2-yl]-1-[6-(dimethyl-amino)pyridin-3-yl]-4-oxoquinoline-3-carboxylic acid], the IC50 was no more than 1000 nM.

As to `Cc1ccc(Cl)c(OC[C@H]2C[C@H]3C[C@H]3N2c2cc3c(cc2F)c(=O)c(C(=O)O)cn3-c2ccc(N(C)C)nc2)n1` [Compound 309], the concentration for half-maximal inhibition (IC50) was no more than 1000 nM.

With `CN(C)C1CN(c2ccc(-n3cc(C(=O)O)c(=O)c4cc(Cl)c(N5C(COc6ncccc6Cl)CCS5(=O)=O)cc43)cn2)C1` (stereo not shown) [Compound 311, 6-chloro-7-(3-(((3-chloropyridin-2-yl)oxy)methyl)-1,1-dioxidoiso-thiazolidin-2-yl)-1-(6-(3-(dimethyl-amino)azetidin-1-yl)pyridin-3-yl)-4-oxo-1,4-dihydro-quinoline-3-carboxylic acid], the IC50 is no more than 1000 nM.

Regarding `Nc1ccc(-n2cc(C(=O)O)c(=O)c3cc(F)c(N4CCC[C@@H]4COc4ncccc4F)cc32)cn1` [Compound 316, 1-(6-Aminopyridin-3-yl)-6-fluoro-7-[(2R)-2-[[(3-fluoropyridin-2-yl)oxy]methyl]pyrrolidin-1-yl]-4-oxoquinoline-3-carboxylic acid], the IC50 is no more than 1000 nM.

In the case of `Nc1ccc(-n2cc(C(=O)O)c(=O)c3cc(F)c(N4CCC[C@@H]4COc4ncccc4Cl)cc32)cn1` [Compound 317, 1-(6-Aminopyridin-3-yl)-7-[(2R)-2-[[(3-chloropyridin-2-yl)oxy]methyl]pyrrolidin-1-yl]-6-fluoro-4-oxoquinoline-3-carboxylic acid], the IC50 was no more than 1000 nM.

On to `CN(C)C1CN(c2ccc(-n3cc(C(=O)O)c(=O)c4cc(Cl)c(N5CCC[C@@H]5COc5ncccc5Cl)cc43)cn2)C1` [Compound 318, 6-Chloro-7-[(2R)-2-[[(3-chloropyridin-2-yl)oxy]methyl]pyrrolidin-1-yl]-1-[6-[3-(dimethyl-amino)azetidin-1-yl]pyridin-3-yl]-4-oxoquinoline-3-carboxylic acid], for which the half-maximal inhibitory concentration (IC50) was no more than 1000 nM.

`O=C(O)c1cn(-c2cnn(C3CN(CC(F)F)C3)c2)c2cc(N3CCC[C@@H]3COc3ncccc3Cl)c(Cl)cc2c1=O` [Compound 319, 6-Chloro-7-[(2R)-2-[[(3-chloropyridin-2-yl)oxy]methyl]pyrrolidin-1-yl]-1-[1-[1-(2,2-difluoroethyl)azetidin-3-yl]pyrazol-4-yl]-4-oxoquinoline-3-carboxylic acid]: the IC50 is no more than 1000 nM.

With `CN(C)C1CN(c2ccc(-n3cc(C(=O)O)c(=O)c4cc(Cl)c(N5CCC[C@@H]5COc5cnccc5Cl)cc43)cn2)C1` [Compound 320, 6-Chloro-7-[(2R)-2-[[(4 chloropyridin-3-yl)oxy]methyl]pyrrolidin-1-yl]-1-[6-[3-(dimethyl-amino)azetidin-1-yl]pyridin-3-yl]-4-oxoquinoline-3-carboxylic acid], the IC50 is no more than 1000 nM.

Turning to `CN(C)C1CN(c2ccc(-n3cc(C(=O)O)c(=O)c4ccc(N5C(=O)CCCC5COc5ccccn5)cc43)cn2)C1` (stereo not shown) [Compound 323, 1-[6-[3-(Dimethyl-amino)azetidin-1-yl]pyridin-3-yl]-4-oxo-7-[2-oxo-6-[(pyridin-2-yloxy)methyl]piperidin-1-yl]quinoline-3-carboxylic acid], the IC50 is greater than 50000 nM.

With `CN(C)C1CN(c2ccc(-n3cc(C(=O)O)c(=O)c4cc(Cl)c(N5C(=O)CCCC5COc5ccccn5)cc43)cn2)C1` (stereo not shown) [Compound 324, 6-Chloro-1-[6-[3-(dimethyl-amino)azetidin-1-yl]pyridin-3-yl]-4-oxo-7-[2-oxo-6-[(pyridin-2-yloxy)methyl]piperidin-1-yl]quinoline-3-carboxylic acid], the IC50 was in the range of 10000 to 50000 nM.

Turning to `CN(C)C1CN(c2ccc(-n3cc(C(=O)O)c(=O)c4cc(F)c(N5CC(c6cccnc6)C[C@@H]5COc5ncccc5Cl)cc43)cn2)C1` (stereo partly drawn) [Compound 325, 7-[(2R)-2-[[(3-Chloropyridin-2-yl)oxy]methyl]-4-(pyridin-3-yl)pyrrolidin-1-yl]-1-[6-[3-(dimethyl-amino)azetidin-1-yl]pyridin-3-yl]-6-fluoro-4-oxoquinoline-3-carboxylic acid], the IC50 was no more than 1000 nM.

Turning to `COCCN(C)C1CN(c2ccc(-n3cc(C(=O)O)c(=O)c4cc(F)c(N5CC(c6cccnc6)C[C@@H]5COc5ncccc5Cl)cc43)cn2)C1` (stereo partly drawn) [Compound 326, 7-[(2R)-2-[[(3-Chloropyridin-2-yl)oxy]methyl]-4-(pyridin-3-yl)pyrrolidin-1-yl]-6-fluoro-1-(6-[3-[(2-methoxyethyl) (methyl)amino]azetidin-1-yl]pyridin-3-yl)-4-oxoquinoline-3-carboxylic acid], the IC50 is no more than 1000 nM.

Turning to `COC1C[C@H](COc2ncccc2Cl)N(c2cc3c(cc2Cl)c(=O)c(C(=O)O)cn3-c2ccc(N3CC(N(C)C)C3)nc2)C1` (stereo partly drawn) [Compound 327, 6-Chloro-7-[(2R)-2-[[(3-chloropyridin-2-yl)oxy]methyl]-4-methoxy-pyrrolidin-1-yl]-1-[6-[3-(dimethyl-amino)azetidin-1-yl]pyridin-3-yl]-4-oxoquinoline-3-carboxylic acid], the half-inhibitory concentration (IC50) was no more than 1000 nM.

For `CC1C[C@H](COc2ncccc2Cl)N(c2cc3c(cc2F)c(=O)c(C(=O)O)cn3-c2ccc(N3CC(N(C)C)C3)nc2)C1` (stereo partly drawn) [Compound 330, 7-[(2R)-2-[[(3-Chloropyridin-2-yl)oxy]methyl]-4-methyl-pyrrolidin-1-yl]-1-[6-[3-(dimethyl-amino)azetidin-1-yl]pyridin-3-yl]-6-fluoro-4-oxoquinoline-3-carboxylic acic], the IC50 was no more than 1000 nM.

`CN(C)C1CN(c2ccc(-n3cc(C(=O)O)c(=O)c4cc(Cl)c(N5CCC[C@@H]5COc5nc(O)ccc5Cl)cc43)cn2)C1` [Compound 331, 6-Chloro-7-[(2R)-2-[[(3-chloro-6-hydroxy-pyridin-2-yl)oxy]methyl]pyrrolidin-1-yl]-1-[6-[3-(dimethyl-amino)azetidin-1-yl]pyridin-3-yl]-4-oxoquinoline-3-carboxylic acid]: the half-maximal inhibitory concentration (IC50) is no more than 1000 nM.

As for `CC1CCN(c2cc3c(cc2Cl)c(=O)c(C(=O)O)cn3-c2ccc(N3CC(N(C)C)C3)nc2)C1COc1nc(N(C)C)ccc1Cl` (stereo not shown) [Compound 332, 6-Chloro-7-[2-({[3-chloro-6-(dimethyl-amino)pyridin-2-yl]oxy}methyl)-3-methyl-pyrrolidin-1-yl]-1-{6-[3-(dimethyl-amino)azetidin-1-yl]pyridin-3-yl}-4-oxoquinoline-3-carboxylic acid], the half-maximal inhibitory concentration (IC50) was no more than 1000 nM.

Regarding `CC1CCN(c2cc3c(cc2Cl)c(=O)c(C(=O)O)cn3-c2ccnc(N)c2)[C@H]1COc1nc(N(C)C)ccc1Cl` (stereo partly shown) [Compound 333], the IC50 was no more than 1000 nM.
